These results are taken from patent publication US20250281509A1, “SEQUENTIAL HORMONE THERAPY TO IMPROVE SURVIVAL AND ENHANCE RESPONSE TO IMMUNE THERAPY IN MEN WITH PROSTATE CANCER” (The Johns Hopkins University, priority 2021, published 2025).

Structures are written as SMILES. “And” between values parts separate entries of the source, which are not always exact repeats. Equal entries are not always repeated. Where two headings read alike, the source gives them in different places.

In one test the test system is AR-V. In words: AR-V expression in VCaP cells exposed to R1881 (FIG. 1B). In kind it is cell-based, human. The settings on record: 48-hr exposure. The text has this: FIG. 1A and FIG. 1B show (FIG. 1A) Effect of synthetic androgen R1881 or bicalutamide on growth of ADT-resistant LNCaP and VCAP; (FIG. 1B) expression of full-length AR (AR-FL), AR-variants (AR-Vs) using antibody to AR N-terminal domain and AR-V& using AR-V7 specific antibody in the absence or presence of R1881;
Thelen et al., 2013. These AR-V expressing cells are profoundly growth inhibited by high dose levels of androgens, FIG. 1A.

The subject of the next test is PARP cleavage. Description: PARP cleavage in prostate cancer cell lines. In kind it is cell-based, human. Here is the method:
(§1) Cell lysates were prepared either in 1× denaturing lysis buffer (Cell Signaling #9803) or non-denaturing lysis buffer (50 mM HEPES pH 7.4, 150 mM NaCl, 5 mM EDTA, 10% glycerol, 1% Nonidet P-40, and supplemented with phosphatase and protease inhibitors). For denaturing gels, lysates were mixed with Laemmli buffer containing β-mercaptoethanol, boiled for 5 mins and stored at −80° C. until use. Native lysates were mixed with native loading buffer (BioRad), and semi-native lysates were mixed with Laemmli buffer without beta-mercaptoethanol and stored at −80° C. without boiling. Native gels were resolved as described previously, Robitaille et al., 2016; denaturing and semi-native gels were resolved on 4-15% precast polyacrylamide gels (BioRad) followed by transfer to PVDF membrane. Membranes were blocked in 5% nonfat milk in wash buffer (Tris-buffered saline+0.1% Tween-20). After blocking, immunoblotting was performed with primary antibodies overnight at 4° C., followed by incubation with HRP-conjugated secondary antibodies for 1 h at room temperature. Blots were analyzed using the chemiluminescence method. Blots were developed using ECL Western blot detection reagent (GE Healthcare) for highly expressed proteins and Super Signal West Femto (Thermo Fisher) reagent for low expression proteins. Each experiment was repeated at least two to three times.

A further test concerns LNCaP cells. In words: Annexin-V positivity. The format is cell-based, human.
A further test relates to autophagy. In words: Autophagy induction in PCa cell lines. In kind it is cell-based, human. Here is the method: as §1
Cells were plated on 60-mm dishes to obtain 80% confluence on the next day. Cells were transfected with tandem mRFP-GFP fluorescent-tagged LC3 (ptfLC3) (Addgene #21074). 24 h post-transfection, cells were trypsinized and plated on sterile glass-bottom dishes at a 40-50% confluency and treated with androgens. Autophagosomes are labelled as green and red dual positive punctas and autolysosomes appear as red puncta as the green puncta is pH sensitive and quenched by the acidic lysosomal pH. Cells were then imaged using a live cell Zeiss LSM780-FCS Single-point, laser scanning confocal microscope. Images were processed using the ImageJ software. Cells with predominantly yellow RFP/GFP (autophagosome) or red RFP (autolysosome) punctae were counted and analyzed from at least twenty fields. Each experiment had images from at least five random fields and repeated three times.

The test system of another test is lipid peroxides. In words: Lipid peroxide sensor C11-BODIPY. In kind it is cell-based, human. The settings on record: LNCaP cells, vs vehicle.
Another test deals with labile iron pool (Fe2+). In words: Measurement of the labile iron pool. To be noted: LNCaP cells, vs vehicle. The format is cell-based, human. The procedure: An iron assay kit (Sigma) was used to measure the labile iron pool in control and R1881 treated cells. LNCaP and LAPC4 cells were culture in a 100-mm tissue culture dish and were treated for […] before lysis in the buffer provided with the kit by snap freezing and thawing method. The lysate was cleared by centrifuging at 13000×g, and iron was measured by iron detection reagents supplied in the kit. Iron levels were calculated and normalized by the total protein present in the cell lysate. Levels of Fe^2+ were analyzed in SupraT treated cells and were normalized to vehicle control cells.

The next test has as its system cytoplasmic DNA. Description: Confocal microscopy of cytoplasmic DNA. The format is cell-based, human. To be noted: combination of hydroxychloroquine and R1881. The procedure:
Cells were grown on sterile coverslips in low density and were treated with R1881 (T) or vehicle control (C). After treatment, media was removed, and cells were fixed and permeabilized using chilled methanol for 10 min in deep-freezer followed by 10 min fixation in 10% natural buffered formalin at room temperature. Post-fixation, cells were blocked overnight in sterile-filtered 5% BSA in PBS at 4° C. Cells were incubated with a primary antibody, followed by a suitable fluorochrome tagged secondary antibody at 4° C. overnight. Both primary and secondary antibodies were diluted with 5% BSA in PBS. Cells were postfixed with 10% NBF for 2-3 min before mounting on a clean glass slide using Vectashield antifade mounting media (Vector Laboratories). Image acquisition was performed on the LSM 700 laser confocal microscope (Zeiss). Experiment was repeated at least three times and images from at least five random fields from each experiment were used for analysis. Images were analyzed using the image processing package Fiji.

Test [1] relates to CRPC. Description: Post hoc analysis of PSA response to subsequent hormonal therapies post-BAT (pilot study). The format is in vivo, human. The procedure: As part of the aforementioned pilot study, a post hoc exploratory analysis on the effect of BAT on subsequent hormonal therapies was performed. […] All of the patients had received at least one anti-androgen prior to starting the study, Table 2. PSA response to secondary hormonal therapy after return to castrate T-levels post-BAT.

Test [2] has as its system CRPC. In words: RESTORE Phase II study (NCT02090114). In kind it is in vivo, human. To be noted: re-challenge with the agent patients progressed on before BAT. From the text: The RESTORE study (NCT02090114) was an NIH sponsored Phase II study designed to assess the safety and efficacy of BAT in men (n=30 per cohort) with CRPC progressing on enzalutamide (Cohort A) or abiraterone (Cohort B), FIG. 6A. Shah et al., 2004. The primary endpoint of the first part of the study was to assess PSA response to BAT. Secondary endpoints included objective response, safety, and quality of life. The second part of the study was to determine in BAT could re-sensitize patients to repeat exposure to second line therapy that patients were progressing on prior to receiving BAT. Thus, patients progressing on enzalutamide were re-exposed to enzalutamide after BAT and similarly for abiraterone. Both arms of this study met the primary endpoint. PSA50 Response to BAT was 30% in patient's post-enzalutamide and 18% post-abiraterone, FIG. 6B. Shah et al., 2004. […] Overall duration of response to BAT and duration of response to re-exposure was longer in the post-enzalutamide vs. post-abiraterone cohort. The PSA50 response to re-exposure to enzalutamide was 71% vs. only 21% for patients re-exposed to abiraterone, FIG. 6B. Shah et al., 2004. A third cohort was later added (Cohort C) for men progressing on ADT alone. Overall, 90 men were treated on this study over a 4-year period (2014-2018).

In test [3] the test system is CRPC progressing on abiraterone. Description: TRANSFORMER randomized Phase II study (NCT02286921). The format is in vivo, human. The settings on record: for PSA50 response: patients crossing from BAT to enzalutamide. The procedure:
The TRANSFORMER study (NCT02286921) was a DOD-sponsored randomized Phase II study designed to compare the efficacy of BAT vs. enzalutamide in asymptomatic men with CRPC progressing on abiraterone, FIG. 7A. The study was conducted at 17 academic centers across the U.S. The study was coordinated by the Prostate Cancer Disease Group clinical research team at Johns Hopkins, who performed regulatory oversight, study/site monitoring, and data analyses. From 2015-2018, 195 patients underwent 1:1 randomization to either standard dose enzalutamide (n=101) or BAT (n=94) at 400 mg IM every 28 days. The primary endpoint was clinical/radiographic PFS. At time of progression, patients were given the option to crossover to the alternate therapy. The trial was designed to show a 50% improvement in the primary endpoint for BAT vs. enzalutamide. […] Objective response was 24.4% for BAT and 4.2% for enzalutamide (p=0.067). Best PSA50 was 26.4% for BAT and 25.5% for enzalutamide (p=0.697).
At time of progression, 46 (49%) of patients on the […] crossed over to receive BAT and 34 (33.7%) crossed over from BAT to receive enzalutamide and were available for analysis.

Test [4] concerns CRPC. To be noted: cited from earlier work.
The test system of test [5] is CRPC. The settings on record: enzalutamide post-abiraterone, pre-chemotherapy setting; cited from earlier work.
Test [6] has as its system metastatic castration-resistant prostate cancer. The settings on record: cited from earlier work.
Test [7] has as its system CRPC. To be noted: post-docetaxel setting; cited from earlier work.
Setting [8] is: initial randomized arms, post-abiraterone.
Setting [9] is: Enzalutamide Phase III (PREVAIL).

Consider `C[C@]1(O)CC[C@H]2[C@@H]3CCC4=CC(=O)CCC4=C3C=C[C@@]21C` [R1881, 17α-methyl-19-nor-δ9,11-testosterone], for which the AR-V expression entry in the test with AR-V was “Complete loss of AR-V expression”. Moreover, in the test on PARP cleavage, the PARP cleavage result is “none of the prostate cancer cell lines treated with synthetic androgen R1881 had any substantial enhancement of PARP cleavage”. The Annexin-V positivity entry with LNCaP cells is reported as “no significant increase in Annexin-V”. Besides, in the test on autophagy (LAPC4 and 22Rv1 cells), the basal autophagy result is “remained largely unaffected”. Moreover, the autophagy entry in the test with autophagy (LNCaP and VCaP cells) is recorded as “notably induces autophagy”. Further, the lipid peroxides entry in the test with lipid peroxides is given as “increased”. For the same compound, the labile iron pool result in the test with labile iron pool (Fe2+) is given as “increased”. Also, the “cytoplasmic DNA” value in the test with cytoplasmic DNA (LAPC4 cells) is “did not show any cytoplasmic DNA”; in the test on cytoplasmic DNA (LNCaP cells) it was “marked localization of cytoplasmic DNA”; in the test on cytoplasmic DNA (VCaP cells) it was “fewer cytoplasmic DNA puncta”.

For `CNC(=O)c1ccc(N2C(=S)N(c3ccc(C#N)c(C(F)(F)F)c3)C(=O)C2(C)C)cc1F` [enzalutamide], in the test on CRPC [1] (after return to castrate testosterone levels post-BAT), the “patients with a PSA decline on second line therapy” value was 4/4. Besides, the “Maximum PSA decline upon secondary HT initiation (%)” value in the test with CRPC [1] (per subject, secondary HT received post-study after return to castrate T-levels post-BAT) is −30.4% and −99.5% and −78.3% and −53.2%. The “patients with >50% PSA decline on second line therapy” value in the test with CRPC [1] (post-BAT) is recorded as 3/4. In addition, the “PSA decline upon re-challenge” value in the test on CRPC [1] (subjects who had previously progressed on the same agent) is 53.2%. The “PSA50 response to re-exposure post-BAT” value in the test on CRPC [2] is recorded as 71%. The compound also displayed an Objective response in test [3] (enzalutamide post-BAT patients) of 28.6%. Besides, the “Time to PSA progression” value in [3] (immediately post-abiraterone) was 3.8 months. Also, in [3] (in vivo), the “increase in time to PSA progression, post-BAT vs post-abiraterone” value was about 3 fold and the overall survival is reported as 28 months. In addition, in test [3] (setting [8]), the “Best PSA50” value is listed as 25.5% and the Objective response came to 4.2%. In test [3] (initial randomized arms, post-abiraterone, listed as Enza), the “Best PSA50” value is reported as 25%. Besides, in test [3] (initial randomized arms, p=0.2267), the “clinical/radiographic PFS” value is on record as 5.72 m. Moreover, the PSA50 response in test [3] is 72.7%. Further, in test [3] (listed as Enza), the PSA50 response came out at 78%. In addition, the “Time to PSA progression” value in [3] (post-BAT) is recorded as 10.9 months. For the same compound, in test [3] (post-BAT, listed as Enza), the “Time to PSA progression” value turned out to be 11 months. In the test with CRPC [4] (setting [9]), the “>50% decline PSA (%)” value was 78%, the “Objective Response (%)” value is 59%, the “PSA PFS” value is reported as 11.2 and the “TTP (m)” value is on record as 20 m. In the test with CRPC [4] (enzalutamide vs placebo, 95% CI 0.60 to 0.84), the “hazard ratio, overall survival” value was 0.71. Further, the median overall survival with CRPC [4] (pre-chemotherapy setting, placebo 30.2 months) was 32.4 months. Further, the “median rPFS” value in the test with CRPC [5] is on record as at most 6 months. In test [6] (AR-V7-negative patients), the “PFS (median), clinical/radiographic” value is on record as 6.1 months; the PSA response rate is on record as 52.6%; the “PSA-PFS (median)” value is reported as 5.9 months. Further, in test [6] (AR-V7-positive patients), the “PFS (median), clinical/radiographic” value is recorded as 2.1 months; the PSA response rate is recorded as 0%; the “PSA-PFS (median)” value is reported as 1.4 months. In addition, in the test on CRPC [7], the improvement in survival entry is listed as “approximately 5 months”.
